Measurements as given in US20090285773A1, “Hepatitis C Virus Inhibitors” (Bristol-Myers Squibb Company, priority 2008, published 2009).

Molecular target: T1, HCV NS3/4A protease complex, H77 strain (1a genotype) (Hepatitis C virus genotype 1a, UniProt P27958, C1454S/C1711G)
T1 construct: DNA encoding the recombinant HCV NS3/4A protease complex (amino acids 1027 to 1711) for these strains; His tag (inferred from pET21b vector and Ni-NTA purification); made in house; host or cells: Escherichia coli BL21 (DE3)
Test: FRET peptide assay, HCV NS3/4A protease complex, H77 strain
Type: biochemical
Source text: HCV NS3 protease complexes, derived from the BMS strain, H77 strain or J4L6S strain, were generated, as described below. These purified recombinant proteins were generated for use in a homogeneous assay (see below) to provide an indication of how effective compounds of the present disclosure would be in inhibiting HCV NS3 proteolytic activity.
Serum from an HCV-infected patient was obtained from Dr. T. Wright, San Francisco Hospital. An engineered full-length cDNA (compliment deoxyribonucleic acid) template of the HCV genome (BMS strain) was constructed from DNA fragments obtained by reverse transcription-PCR (RT-PCR) of serum RNA (ribonucleic acid) and using primers selected on the basis of homology between other genotype 1a strains. From the determination of the entire genome sequence, a genotype 1a was assigned to the HCV isolate according to the classification of Simmonds et al. (See P Simmonds, K A Rose, S Graham, S W Chan, F McOmish, B C Dow, E A Follett, P L Yap and H Marsden, J. Clin. Microbiol., 31(6), 1493-1503 (1993)). […]

T1 sequence (P27958 1027-1711 C1454S/C1711G, one chain of several): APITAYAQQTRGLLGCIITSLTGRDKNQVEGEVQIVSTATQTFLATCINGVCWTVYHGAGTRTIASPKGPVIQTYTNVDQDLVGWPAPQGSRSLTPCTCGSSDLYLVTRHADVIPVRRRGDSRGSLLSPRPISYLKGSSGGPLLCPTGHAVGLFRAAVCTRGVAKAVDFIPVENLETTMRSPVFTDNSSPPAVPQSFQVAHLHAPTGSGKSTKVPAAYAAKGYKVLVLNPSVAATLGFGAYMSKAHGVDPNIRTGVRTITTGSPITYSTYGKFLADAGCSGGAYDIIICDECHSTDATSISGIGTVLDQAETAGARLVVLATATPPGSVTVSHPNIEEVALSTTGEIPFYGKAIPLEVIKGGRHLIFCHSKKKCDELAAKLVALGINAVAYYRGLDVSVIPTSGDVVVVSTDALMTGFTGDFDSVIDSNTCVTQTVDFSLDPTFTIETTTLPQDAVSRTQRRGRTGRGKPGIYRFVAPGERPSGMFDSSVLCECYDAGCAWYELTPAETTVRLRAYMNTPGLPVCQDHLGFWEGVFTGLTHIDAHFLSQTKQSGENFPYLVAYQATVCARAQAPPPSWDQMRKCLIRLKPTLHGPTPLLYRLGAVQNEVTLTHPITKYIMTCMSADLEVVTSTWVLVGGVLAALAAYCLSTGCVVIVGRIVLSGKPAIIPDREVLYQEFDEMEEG

**Q.** How did the IC50 turn out when `COc1ccc2c(O[C@@H]3C[C@H]4C(=O)N[C@]5(C(=O)NS(=O)(=O)C6CC6)C[C@H]5/C=C\CCCCC[C@H](Nc5ccc(OC)nc5)C(=O)N4C3)nccc2c1` (single isomer, unassigned) [Compound 1] was run?
**A.** Its IC50 is 1.9 nM.
